Laboratory results taken from patent publication US9604996B2 (Bayer Pharma Aktiengesellschaft, priority 2013, dated 2017).

Key:
[1] = system: IL-6 release by human fibroblast cell line LL29; assay: NECA-induced IL-6 release by LL29 fibroblasts (ELISA); assay type: cell-based; settings: NECA 10 μM, 24 hours incubation, IL-6 ELISA of supernatant, in some cases means, rounded to two significant digits
Procedure: B-2. Measurement of NECA-Induced IL-6 Release by LL29 Fibroblasts
Stimulation of fibroblasts with adenosine or the adenosine analog 5′-N-ethylcarboxamidoadenosine (NECA) leads to release of the pro-inflammatory and pro-fibrotic cytokine IL-6 which can be prevented by inhibition of the A2b receptor.
Accordingly, confluent cells of the human fibroblast cell line LL29 were treated with the test substances and stimulated with NECA (10 μM). After an incubation time of 24 hours, the cell supernatant is removed and human IL-6 in the cell supernatant is determined by ELISA (Quantikine® IL6 ELISA, R&D Systems, Minneapolis, USA).

[2] = molecular target: T1, human adenosine A2b receptor (Homo sapiens, UniProt P29275); assay: Cellular reporter gene (CRE-luciferase) A2b receptor antagonist assay in recombinant CHO-K1 cells stimulated with NECA; assay type: cell-based; settings: recombinant CHO-K1 cell line, co-incubation with EC50 concentration of NECA, 3 hours, in some cases means, rounded to two significant digits
T1 construct: expressed in transfected cells; host or cells: CHO-K1 (Chinese Hamster Ovary) with CRE-luciferase reporter
T1 sequence (P29275 1-332): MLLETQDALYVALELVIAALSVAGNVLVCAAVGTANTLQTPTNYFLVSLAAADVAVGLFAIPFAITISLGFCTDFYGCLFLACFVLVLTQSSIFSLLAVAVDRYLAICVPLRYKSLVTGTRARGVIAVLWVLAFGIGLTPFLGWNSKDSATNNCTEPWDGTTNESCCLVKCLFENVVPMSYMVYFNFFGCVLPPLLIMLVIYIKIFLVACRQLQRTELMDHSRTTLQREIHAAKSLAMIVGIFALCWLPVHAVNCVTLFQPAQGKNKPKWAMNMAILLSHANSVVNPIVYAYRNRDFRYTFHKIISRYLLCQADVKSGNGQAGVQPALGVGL
How it was run: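 CHO-K1 cells expressing human A2b receptor with a CRE-driven firefly luciferase reporter, co-incubated with test compound and NECA at its same-day EC50 concentration. Luminescence read 3 hours after NECA addition.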

IC50 [2]	Structure (SMILES)	IC50 [1]
0.037 µM	Cc1c(C(=O)N2CCC(O)CC2)sc2c1c(=O)n(CCc1ccccc1)c(=O)n2CCC(F)(F)F [Example 1, 6-[(4-Hydroxypiperidin-1-yl)carbonyl]-5-methyl-3-(2-phenylethyl)-1-(3,3,3-trifluoropropyl)thieno[2,3-d]pyrimidine-2,4(1H,3H)-dione]	0.059 µM
0.044 µM	Cc1c(C(=O)N2CCC(O)CC2)sc2c1c(=O)n(CCc1ccccc1)c(=O)n2CCC=C(F)F [Example 2, 1-(4,4-Difluorobut-3-en-1-yl)-6-[(4-hydroxypiperidin-1-yl)carbonyl]-5-methyl-3-(2-phenylethyl)thieno[2,3-d]pyrimidine-2,4(1H,3H)-dione]	0.053 µM
0.025 µM	Cc1c(C(=O)N2CCC(O)CC2)sc2c1c(=O)n(CCc1ccccc1F)c(=O)n2CCC(F)(F)F [Example 4, 3-[2-(2-Fluorophenyl)ethyl]-6-[(4-hydroxypiperidin-1-yl)carbonyl]-5-methyl-1-(3,3,3-trifluoropropyl)thieno[2,3-d]pyrimidine-2,4(1H,3H)-dione]	0.039 µM
0.013 µM	Cc1c(C(=O)N2CCC(O)CC2)sc2c1c(=O)n(CCc1ccccc1Cl)c(=O)n2CCC(F)(F)F [Example 6, 3-[2-(2-Chlorophenyl)ethyl]-6-[(4-hydroxypiperidin-1-yl)carbonyl]-5-methyl-1-(3,3,3-trifluoropropyl)thieno [2,3-d]pyrimidine-2,4(1H,3H)-dione]	0.027 µM
0.039 µM	CC(C)Cn1c(=O)c2c(C(F)F)c(C(=O)N3CCC(C)(O)CC3)sc2n(CCC(F)(F)F)c1=O [Example 140, 5-(Difluoromethyl)-6-[(4-hydroxy-4-methylpiperidin-1-yl)carbonyl]-3-isobutyl-1-(3,3,3-trifluoropropyl)thieno[2,3-d]pyrimidine-2,4(1H,3H)-dione]	
0.057 µM	CCCn1c(=O)c2c(C(F)F)c(C(=O)N3CCC(O)CC3)sc2n(CCC(F)(F)F)c1=O [Example 141, 5-(Difluoromethyl)-6-[(4-hydroxypiperidin-1-yl)carbonyl]-3-propyl-1-(3,3,3-trifluoropropyl)thieno[2,3-d]pyrimidine-2,4(1H,3H)-dione]	
0.053 µM	CCCn1c(=O)c2c(C(F)F)c(C(=O)N3CCC(C)(O)CC3)sc2n(CCC(F)(F)F)c1=O [Example 142, 5-(Difluoromethyl)-6-[(4-hydroxy-4-methylpiperidin-1-yl)carbonyl]-3-propyl-1-(3,3,3-trifluoropropyl)thieno[2,3-d]pyrimidine-2,4(1H,3H)-dione]	
0.082 µM	CCn1c(=O)c2c(CF)c(C(=O)N3CCC(O)CC3)sc2n(CCC(F)(F)F)c1=O [Example 143, 3-Ethyl-5-(fluoromethyl)-6-[(4-hydroxypiperidin-1-yl)carbonyl]-1-(3,3,3-trifluoropropyl)thieno[2,3-d]pyrimidine-2,4(1H,3H)-dione]	
0.17 µM	CCn1c(=O)c2c(CF)c(C(=O)N3CCC(C)(O)CC3)sc2n(CCC(F)(F)F)c1=O [Example 144, 3-Ethyl-5-(fluoromethyl)-6-[(4-hydroxy-4-methylpiperidin-1-yl)carbonyl]-1-(3,3,3-trifluoropropyl)thieno[2,3-d]pyrimidine-2,4(1H,3H)-dione]	
0.0098 µM	CCCn1c(=O)c2c(C(F)F)c(C(=O)N3CCC(O)CC3)sc2n(CCOC(F)(F)F)c1=O [Example 150, 5-(Difluoromethyl)-6-[(4-hydroxypiperidin-1-yl)carbonyl]-3-propyl-1-[2-(trifluoromethoxy)ethyl]thieno[2,3-d]pyrimidine-2,4(1H,3H)-dione]	
0.014 µM	CCCn1c(=O)c2c(C(F)F)c(C(=O)N3CCC(C)(O)CC3)sc2n(CCOC(F)(F)F)c1=O [Example 151, 5-(Difluoromethyl)-6-[(4-hydroxy-4-methylpiperidin-1-yl)carbonyl]-3-propyl-1-[2-(trifluoromethoxy)ethyl]thieno[2,3-d]pyrimidine-2,4(1H,3H)-dione]	
